Laboratory results as given in patent US8710198B2, “Caprazene as a novel compound and derivatives thereof, and caprazol as a novel compound and derivatives thereof” (Meiji Seika Pharma Co., Ltd., priority 2003, dated 2014).

Tests used:
Format in all cases: cell-based
[1] = test system: Micrococcus luteus FDA16; assay: Minimum growth inhibitory concentration on agar culture medium by serial dilution method (Japanese Society of Chemotherapy)
Description: (§1) Minimum growth inhibitory concentrations (mcg/ml) of caprazene-1′″-amide derivatives of the formula (II) against some of microorganisms were measured on an agar culture medium by a serial dilution method according to the standard method as provided by Japanese Society of Chemotherapy. For the cultivation of Mycobacterium smegmatis (one of […]), however, there was used an agar culture medium with the addition of 1% glycerine (the same applies to in the following tests).
(§2) Minimum growth inhibitory concentrations (mcg/ml) of some of the caprazene-1′″-ester derivative of the formula (III) against some of microorganisms were measured on an agar culture medium by a serial dilution method according to the standard method as provided by Japanese Society of Chemotherapy.
(§3) Minimum growth inhibitory concentrations (mcg/ml) of some of the caprazol-1′″-amide derivative of the formula (V) against a variety of microorganisms were measured on an agar medium by a serial dilution method according to the standard method as provided by Japanese Society of Chemotherapy.
as §3, with “caprazol-1′″-amide-3′″-ester” for “caprazol-1′″-amide”, “(VI)” for “(V)”
as §3, with “caprazol-3′″-ester derivative or caprazol-1′″-ester-3′″-ester” for “caprazol-1′″-amide”, “(VII)” for “(V)”
(§4) Minimum growth inhibitory concentrations (mcg/ml) of some of the derivative of the formula (VIII) against a variety of microorganisms were measured on an agar medium by a serial dilution method according to the standard method as provided by Japanese Society of Chemotherapy.

[2] = test system: Staphylococcus aureus FDA209P; assay: as above
Description: as §1, §2, §3
as §4, with “of the caprazol-1′″-amide-3′″-ester derivative of” for “of the derivative of”, “the formula (VI) against a” for “the formula (VIII) against a”
as §4, with “of the caprazol-3′″-ester derivative or caprazol-1′″-ester-3′″-ester derivative of” for “of the derivative of”, “the formula (VII) against a” for “the formula (VIII) against a”
as §4

[3] = test system: Mycobacterium smegmatis ATCC607; assay: Minimum growth inhibitory concentration on agar culture medium with 1% glycerine by serial dilution method; settings: agar culture medium with the addition of 1% glycerine
Description: as §1, §2, §3
as §4, with “of the caprazol-1′″-amide-3′″-ester derivative of” for “of the derivative of”, “the formula (VI) against a” for “the formula (VIII) against a”
as §4, with “of the caprazol-3′″-ester derivative or caprazol-1′″-ester-3′″-ester derivative of” for “of the derivative of”, “the formula (VII) against a” for “the formula (VIII) against a”

Row | Structure (SMILES) | Minimum growth inhibitory concentration (mcg/ml) against bacteria Micrococcus luteus FDA16 [1] [µg/mL] | Minimum growth inhibitory concentration (mcg/ml) against bacteria Staphylococcus aureus FDA209P [2] [µg/mL] | Minimum growth inhibitory concentration (mcg/ml) against bacteria Mycobacterium smegmatis ATCC607 [3] [µg/mL]
1 | CCCCCCCCCCCNC(=O)C1C(OC(=O)CCCCCCCCCCC)CN(C)C(C(OC2OC(CN)C(O)C2O)C2OC(n3ccc(=O)[nH]c3=O)C(O)C2O)C(=O)N1C (stereo not drawn) [Compound VI-F] | 3.13 | 12.5 | 6.25
2 | CCCCCCCCNC(=O)C1=CCN(C)C(C(OC2OC(CN)C(O)C2O)C2OC(n3ccc(=O)[nH]c3=O)C(O)C2O)C(=O)N1C (stereo not drawn) [Compound II-C] | 0.78 | 6.25 | 12.5
3 | CCCCCCCCNC(=O)C1C(O)CN(C)C(C(OC2OC(CN)C(O)C2O)C2OC(n3ccc(=O)[nH]c3=O)C(O)C2O)C(=O)N1C (stereo not drawn) [Compound V-C] | 25 | 25 | 6.25
4 | CCCCCCCC(=O)OC1CN(C)C(C(OC2OC(CN)C(O)C2O)C2OC(n3ccc(=O)[nH]c3=O)C(O)C2O)C(=O)N(C)C1C(=O)O (stereo not drawn) [Compound VII-B] | >50 | 12.5 | 1.56
5 | CCCCCCCCCCNC(=O)C1C(OC(=O)CCCCCCCCCC)CN(C)C(C(OC2OC(CN)C(O)C2O)C2OC(n3ccc(=O)[nH]c3=O)C(O)C2O)C(=O)N1C (stereo not drawn) [Compound VI-E] | 6.25 | 12.5 | 6.25
6 | CCCCCCCCCc1ccc(NC(=O)C2=CCN(C)C(C(OC3OC(CN)C(O)C3O)C3OC(n4ccc(=O)[nH]c4=O)C(O)C3O)C(=O)N2C)cc1 (stereo not drawn) [Compound II-9] | 0.39 | 3.13 | 1.56
7 | CCCCCCCCC=CCCCCCCCCNC(=O)C1C(O)CN(C)C(C(OC2OC(CN)C(O)C2O)C2OC(n3ccc(=O)[nH]c3=O)C(O)C2O)C(=O)N1C (stereo not drawn) [Compound V-R] | 25 | 12.5 | 6.25
8 | CCCCCCCCCCNC(=O)C1C(O)CN(C)C(C(OC2OC(CN)C(O)C2O)C2OC(n3ccc(=O)[nH]c3=O)C(O)C2O)C(=O)N1C (stereo not drawn) [Compound V-E] | 25 | 25 | 6.25
9 | CCCCCCCCCNC(=O)C1=CCN(C)C(C(OC2OC(CN)C(O)C2O)C2OC(n3ccc(=O)[nH]c3=O)C(O)C2O)C(=O)N1C (stereo not drawn) [Compound II-D] | 0.39 | 6.25 | 3.13
10 | CCCCCCCCCCCCNC(=O)C1C(OC(=O)CCCCCCCCCCC)CN(C)C(C(OC2OC(CN)C(O)C2O)C2OC(n3ccc(=O)[nH]c3=O)C(O)C2O)C(=O)N1C (stereo not drawn) [Compound VI-G, caprazol-1′″-dodecylamide-3′″-dodecanoylester derivative] | 3.13 | 25 | 6.25
11 | CCCCCCCCCCCCCCCCCCNC(=O)C1=CCN(C)C(C(OC2OC(CN)C(O)C2O)C2OC(n3ccc(=O)[nH]c3=O)C(O)C2O)C(=O)N1C (stereo not drawn) [Compound II-M] | 0.78 | 6.25 | 3.13
12 | CCCCCCCCCCCNC(=O)C1=CCN(C)C(C(OC2OC(CN)C(O)C2O)C2OC(n3ccc(=O)[nH]c3=O)C(O)C2O)C(=O)N1C (stereo not drawn) [Compound II-F] | 0.39 | 1.56 | 0.39
